System: PDE4 activity (cytosol from human neutrophils)
Experiment: Inhibition of PDE4 activity
Format: biochemical
Set-up: unit not given here
Conditions: 0.5 μM cAMP, Motapizone 1 μM included to suppress PDE3
Method: Method for Measuring Inhibition of PDE4 Activity
PDE4 activity was determined as described by Thompson et al. (Adv Cycl Nucl Res 10: 69–92, 1979) with some modifications (Bauer and Schwabe, Naunyn-Schmiedeberg's Arch Pharmacol 311: 193–198, 1980). At a final assay volume of 200 μl (96well microliter plates) the assay mixture contained 20 mM Tris (pH 7.4), 5 mM MgCl2, 0.5 μM cAMP, [^3H]CAMP (about 30,000 cpm/assay), the test compound and an aliquot of cytosol from human neutrophils which mainly contains PDE4 activity as described by Schudt et al. (Naunyn-Schmiedeberg's Arch Pharmacol 344: 682–690, 1991); the PDE3-specific inhibitor Motapizone (1 μM) was included to suppress PDE3 activity originating from contaminating platelets. […]
After preincubation for 5 min at 37° C., the reaction was started by the addition of substrate (cAMP) and the assays were incubated for further 15 min at 37° C. […] The columns were eluted with 2 ml of 30 mM ammonium formiate (pH 6.0) and the eluate was counted for radioactivity. Results were corrected for blank values (measured in the presence of denatured protein) which were below 5% of total radioactivity. […] The IC50-values for the compounds according to the invention for the inhibition of the PDE4 activity were determined from the concentration-inhibition curves by nonlinear-regression.

## COc1ccc(C2=NN(C3CCN(C(=O)CN4C(=O)CCC4=O)CC3)C(=O)[C@@H]3CC=CC[C@H]23)cc1OC [Example 1, 1-(2-{4-[(4aS,8aR)-4-(3,4-Dimethoxy-phenyl)-1-oxo-4a,5,8,8a-tetrahydro-yl]-piperidin-1-yl}-2-oxo-ethyl)-pyrrolidine-2,5-dione]
  Inhibition of PDE4 activity, −logIC50: 10.66

From patent publication US7220746B2, “Pyrrolidinedione substituted piperidine-phthalazones as PDE4 inhibitors” (Altana Pharma AG, priority 2002, dated 2007)
